Assay results: patent publication US10173968B2, “Bishydrazone-based antifungal agents” (University of Kentucky Research Foundation, priority 2016, dated 2019)
“And” between values parts separate entries of the source, which are not always exact repeats. Equal values may be shown once. Read-outs that look alike come from different tables or passages of the source.

Legend:
A. baumannii ATCC 19606 = assay: Antibacterial MIC, double-dilution method; assay type: cell-based; conditions: Acinetobacter baumannii, ATCC19606
Experimental: (§1) MIC values were determined against a variety of Gram-positive (strains A-D) and Gram-negative (E-J) bacterial and mycobacterial (K) strains using the double-dilution method, as previously published. Preliminary screening was performed using 500 μM of each compound.

B. subtilis 168 = assay: Antibacterial MIC, double-dilution method; assay type: cell-based; conditions: Bacillus subtilis, strain A, Gram-positive
Experimental: as §1

E. cloacae ATCC 13047 = assay: Antibacterial MIC, double-dilution method; assay type: cell-based; conditions: Enterobacter cloacae, ATCC13047, strain F, Gram-negative, read-out: MIC
Experimental: as §1

E. coli MC1061 = assay: Antibacterial MIC, double-dilution method; assay type: cell-based; conditions: Escherichia coli
Experimental: as §1

K. pneumoniae ATCC 27736 = assay: Antibacterial MIC, double-dilution method; assay type: cell-based; conditions: Klebsiella pneumoniae, ATCC27736
Experimental: as §1

[1] = tested on: L. monocytogenes ATCC 19115; assay: Antibacterial MIC, double-dilution method; assay type: cell-based; conditions: Listeria monocytogenes, ATCC19115, strain B, Gram-positive, read-out: MIC
Experimental: as §1

M. smegmatis MC2-155 = assay: Antibacterial MIC, double-dilution method; assay type: cell-based; conditions: Mycolicibacterium smegmatis, MC2155, strain K, mycobacterial
Experimental: as §1

MRSA = assay: Antibacterial MIC, double-dilution method; assay type: cell-based; conditions: Staphylococcus aureus, strain C, Gram-positive, read-out: MIC
Experimental: as §1

P. aeruginosa ATCC 27853 = assay: Antibacterial MIC, double-dilution method; assay type: cell-based; conditions: Pseudomonas aeruginosa, ATCC27853, strain I, Gram-negative, read-out: MIC
Experimental: as §1

S. enterica ATCC 14028 = assay: Antibacterial MIC, double-dilution method; assay type: cell-based; conditions: Salmonella enterica, ATCC14028, strain J, Gram-negative, read-out: MIC
Experimental: as §1

VRE = assay: Antibacterial MIC, double-dilution method; assay type: cell-based; conditions: Enterococcus, strain D, Gram-positive, read-out: MIC
Experimental: as §1

C. albicans ATCC 1003 = assay: Antifungal MIC, CLSI M27-A3 microbroth dilution; assay type: cell-based, Candida albicans; conditions: Candida albicans, ATCC1003, read-out: MIC
Experimental: (§2) In vitro MIC testing was performed according to the CLSI M27-A3 standard microbroth dilution methodology for the susceptibility testing of yeasts with minor modifications.

C. albicans ATCC 10231 = assay: Antifungal MIC, CLSI M27-A3 microbroth dilution; assay type: cell-based, Candida albicans; conditions: Candida albicans, ATCC10231, C. albicans ATCC 10231, resistant to FLC, ITC, and VOR, read-out: MIC
Experimental: as §2

C. albicans ATCC 1237 = assay: Antifungal MIC, CLSI M27-A3 microbroth dilution; assay type: cell-based, Candida albicans; conditions: Candida albicans, ATCC1237, C. albicans ATCC 1237, resistant to FLC, ITC, and VOR, read-out: MIC
Experimental: as §2

C. albicans ATCC 2310 = assay: Antifungal MIC, CLSI M27-A3 microbroth dilution; assay type: cell-based, Candida albicans; conditions: Candida albicans, ATCC2310, C. albicans ATCC 2310, susceptible to FLC, ITC, and VOR, read-out: MIC
Experimental: as §2

C. albicans ATCC 2876 = assay: Antifungal MIC, CLSI M27-A3 microbroth dilution; assay type: cell-based, Candida albicans; conditions: Candida albicans, ATCC2876, C. albicans ATCC 2876, susceptible to FLC, ITC, and VOR, read-out: MIC
Experimental: as §2

C. albicans ATCC 64124 = assay: Antifungal MIC, CLSI M27-A3 microbroth dilution; assay type: cell-based, Candida albicans; conditions: Candida albicans, ATCC64124, C. albicans ATCC 64124, resistant to FLC, ITC, and VOR, read-out: MIC
Experimental: as §2

C. albicans ATCC 90819 = assay: Antifungal MIC, CLSI M27-A3 microbroth dilution; assay type: cell-based, Candida albicans; conditions: Candida albicans, ATCC90819, C. albicans ATCC 90819, resistant to FLC, ITC, and VOR, read-out: MIC
Experimental: as §2

[2] = tested on: C. albicans strains (panel of seven); assay: Antifungal MIC, summary over the panel; assay type: cell-based, Candida albicans; conditions: Candida albicans; all, most or majority of the fungal strains; read-out: MIC, span over C. albicans strains
Experimental: In vitro MIC testing was performed according to the CLSI M27-A3 standard microbroth dilution methodology for the susceptibility testing of yeasts with minor modifications. […] MIC values were read visually for all tested compounds, and the endpoint was determined as the minimum concentration of compound that yielded complete inhibition relative to growth control.

[3] = strain G, Gram-negative, converted from μM, read-out: MIC
[4] = strain G, Gram-negative, range 0.5 to 500 μM, read-out: MIC
[5] = converted from μM, read-out: MIC
[6] = C. albicans ATCC 1003, converted from μg/mL
[7] = strain E, Gram-negative, converted from μM, read-out: MIC
[8] = strain E, Gram-negative, range 0.5 to 500 μM, read-out: MIC
[9] = strain H, Gram-negative, converted from μM, read-out: MIC
[10] = strain H, Gram-negative, range 0.5 to 500 μM, read-out: MIC

Compound | MIC (B. subtilis 168; converted from μM) | MIC (B. subtilis 168; range 0.5 to 500 μM) | MIC ([1]; converted from μM) | MIC ([1]; range 0.5 to 500 μM) | MIC (MRSA; converted from μM) | MIC (MRSA; range 0.5 to 500 μM) | MIC (S. enterica ATCC 14028; converted from μM) | MIC (S. enterica ATCC 14028; range 0.5 to 500 μM) | MIC (VRE; converted from μM) | MIC (VRE; range 0.5 to 500 μM) | MIC (C. albicans ATCC 1003; [6]) | MIC (C. albicans ATCC 1003) | MIC (C. albicans ATCC 10231; converted from μg/mL) | MIC (C. albicans ATCC 10231) | MIC (C. albicans ATCC 1237; converted from μg/mL) | MIC (C. albicans ATCC 1237) | MIC (C. albicans ATCC 2310; converted from μg/mL) | MIC (C. albicans ATCC 2310) | MIC (C. albicans ATCC 2876; converted from μg/mL) | MIC (C. albicans ATCC 2876) | further results
Cl.N#Cc1ccc(N/N=C/c2ccc(-c3ccc(/C=N/NC(=N)N)cc3)cc2)cc1 [Compound 7Ae, (E)-2-((4′-((E and Z)-(2-(4-Cyanophenyl)hydrazono)methyl)-[1,1′-biphenyl]-4-yl)methylene)hydrazine-1-carboximidamide monohydrochloride] | 13.1 µg/mL | 31.3 µM | 3.3 µg/mL | 7.8 µM | 6.5 µg/mL | 15.6 µM | 6.5 µg/mL | 15.6 µM | 0.8 to 1.6 µg/mL | 2 to 3.9 µM | 18.7 µM | 7.8 µg/mL | 37.3 µM | 15.6 µg/mL | 37.3 µM | 15.6 µg/mL | 37.3 µM | 15.6 µg/mL | 37.3 µM | 15.6 µg/mL | MIC (A. baumannii ATCC 19606): 15.6 µM to 31.3 µM and 6.5 µg/mL to 13.1 µg/mL; MIC (E. cloacae ATCC 13047; converted from μM): 209 µg/mL; MIC (E. cloacae ATCC 13047; range 0.5 to 500 μM): 500 µM; MIC (E. coli MC1061; [3]): 26.1 to 52.2 µg/mL; MIC (E. coli MC1061; [4]): 62.5 to 125 µM; MIC (K. pneumoniae ATCC 27736): 15.6 µM to 31.3 µM and 6.5 µg/mL to 13.1 µg/mL; MIC (M. smegmatis MC2-155; [5]): 6.5 to 13.1 µg/mL; MIC (M. smegmatis MC2-155; range 0.5 to 500 μM): 15.6 to 31.3 µM; MIC (P. aeruginosa ATCC 27853; converted from μM): 13.1 to 26.1 µg/mL; MIC (P. aeruginosa ATCC 27853; range 0.5 to 500 μM): 31.3 to 62.5 µM; MIC (C. albicans ATCC 64124; converted from μg/mL): 74.9 µM; MIC (C. albicans ATCC 64124): 31.3 µg/mL; MIC (C. albicans ATCC 90819; converted from μg/mL): 37.3 µM; MIC (C. albicans ATCC 90819): 15.6 µg/mL; MIC [2]: 7.8 to 15.6 µg/mL; melting point: 308 to 310 °C
C/C(=N\NC(=N)N)c1ccc(-c2ccc(/C(C)=N/Nc3ccccc3Cl)cc2)cc1.Cl [Compound 8Aa, (E)-2-(1-(4′-((E)-1-(2-(2-chlorophenyl)hydrazono)ethyl)-[1,1′-biphenyl]-4-yl)ethylidene)hydrazine-1-carboximidamide hydrochloride] | 26.6 to 53.3 µg/mL | 62.5 to 125 µM | 26.6 to 53.3 µg/mL | 62.5 to 125 µM | 53.3 µg/mL | 125 µM | 26.3 to 53.3 µg/mL | 62.5 to 125 µM | 1.7 µg/mL | 3.9 µM | 34.3 µM | 15.6 µg/mL | 34.3 µM | 15.6 µg/mL | 34.3 µM | 15.6 µg/mL | 34.3 µM | 15.6 µg/mL | 34.3 µM | 15.6 µg/mL | MIC (A. baumannii ATCC 19606; [7]): 26.6 µg/mL; MIC (A. baumannii ATCC 19606; [8]): 62.5 µM; MIC (E. coli MC1061): 213 µg/mL and 500 µM; MIC (K. pneumoniae ATCC 27736; [9]): 26.6 to 53.3 µg/mL; MIC (K. pneumoniae ATCC 27736; [10]): 62.5 to 125 µM; MIC (C. albicans ATCC 64124; converted from μg/mL): 68.7 µM; MIC (C. albicans ATCC 64124): 31.3 µg/mL; MIC (C. albicans ATCC 90819; converted from μg/mL): 34.3 µM; MIC (C. albicans ATCC 90819): 15.6 µg/mL; MIC [2]: 7.8 to 15.6 µg/mL; melting point: > 380 °C
C/C(=N\NC(=N)N)c1ccc(Cc2ccc(/C(C)=N/NC(=N)N)cc2)cc1.Cl.Cl [Compound 4C, (2E,2′E)-2,2′-((methylenebis(4,1-phenylene))bis(ethan-1-yl-1-ylidene))bis(hydrazine-1-carboximidamide) dihydrochloride] | > 219 µg/mL | > 500 µM | 1.7 µg/mL | 3.9 µM | 1.7 µg/mL | 3.9 µM | > 219 µg/mL | > 500 µM | 0.9 µg/mL | 2 µM | 17.8 µM | 7.8 µg/mL | 17.8 µM | 7.8 µg/mL | 17.8 µM | 7.8 µg/mL | 17.8 µM | 7.8 µg/mL | 8.9 µM | 3.9 µg/mL | MIC (A. baumannii ATCC 19606; [7]): > 219 µg/mL; MIC (A. baumannii ATCC 19606; [8]): > 500 µM; MIC (E. cloacae ATCC 13047; converted from μM): > 219 µg/mL; MIC (E. cloacae ATCC 13047; range 0.5 to 500 μM): > 500 µM; MIC (E. coli MC1061; [3]): > 219 µg/mL; MIC (E. coli MC1061; [4]): > 500 µM; MIC (K. pneumoniae ATCC 27736; [9]): > 219 µg/mL; MIC (K. pneumoniae ATCC 27736; [10]): > 500 µM; MIC (M. smegmatis MC2-155; [5]): 0.9 µg/mL; MIC (M. smegmatis MC2-155; range 0.5 to 500 μM, read-out: MIC): 2 µM; MIC (P. aeruginosa ATCC 27853; converted from μM): > 219 µg/mL; MIC (P. aeruginosa ATCC 27853; range 0.5 to 500 μM): > 500 µM; MIC (C. albicans ATCC 64124; converted from μg/mL): 17.8 µM; MIC (C. albicans ATCC 64124): 7.8 µg/mL; MIC (C. albicans ATCC 90819; converted from μg/mL): 17.8 µM; MIC (C. albicans ATCC 90819): 7.8 µg/mL; melting point: 342 to 344 °C
